Results from US8367843B2, “Phenol derivative” (Fuji Yakuhin Co., Ltd., priority 2009, dated 2013).

Assays:
Assay type in all cases: in vivo
[1] = test system: male Wistar/ST rats (pyrazinamide model); test: Uricosuric action in rat pyrazinamide model; details: urinary uric acid/creatinine ratio as percentage to control, test substance 30 mg/kg oral, 30 min after pyrazinamide 400 mg/kg, urine collected 2 to 3 hours after administration, read-out: Uricosuric action (control = 100)
Description: Uricosuric Action in Rat Pyrazinamide Model
Pyrazinamide suspended in a 0.5% methyl cellulose solution (0.5% MC) was orally administered to 7- and 8-week-old male Wistar/ST rats (4 rats per group) fasted for about 16 hours in a dose of 400 mg/kg. After 30 minutes, a test substance suspended in 0.5% MC was orally administered in a dose of 30 mg/kg, and urine was collected for 1 hour in a range from 2 to 3 hours after administration. At the beginning of collection of urine and after completion of collection of urine, rats were forced to urinate by pressing the abdomen of the rat. The concentration of uric acid and that of creatinine in urine were measured by a kit, and a ratio of the concentration of uric acid to that of creatinine was used as an indicator of a uricosuric action. The action of each test substance was expressed by percentage to control.

[2] = Concentration of unchanged compound in urine in rat; details: 3 mg/kg oral, fasted male Wistar/ST rats, urine collected for 4 hours after administration, HPLC
Description: Concentration of Unchanged Compound in Urine in Rat
A test substance suspended in 0.5% MC was orally administered to two male Wistar/ST rats fasted for about 16 hours in a dose of 3 mg/kg. Immediately after administration, urine was collected for 4 hours. After completion of collection of urine, urine remaining in the bladder was completely excreted by pressing the abdomen of the rat. The concentration of an unchanged compound in urine was measured by HPLC and expressed by a molar concentration (μM).

[3] = test system: male Wistar/ST rats (pyrazinamide model); test: Uricosuric action in rat pyrazinamide model; details: po, as above, but test substance 100 mg/kg

SMILES | response vs control in vivo at 30 mg/kg [1] [%] | Concentration of unchanged compound in urine [2] [µM] | response vs control in vivo at 100 mg/kg [3] [%]
CCc1oc2ccccc2c1C(=O)c1cc(Br)c(O)c(Br)c1 [Benzbromarone, reference compound] | 114 | 0 | –
O=C(c1cc(Cl)c(O)c(Cl)c1)N1CS(=O)(=O)c2ccccc21 [Example 1, 3-(3,5-dichloro-4-hydroxybenzoyl)-1,1-dioxo-2,3-dihydro-1,3-benzothiazole] | 169 | 9.8 | –
N#Cc1cc(C(=O)N2CS(=O)(=O)c3ccccc32)cc(C(F)(F)F)c1O [Example 4, 3-(3-cyano-4-hydroxy-5-trifluoromethylbenzoyl)-1,1-dioxo-2,3-dihydro-1,3-benzothiazole] | 201 | 51.8 | –
N#Cc1cc(C(=O)N2CSc3ccccc32)cc(C(F)(F)F)c1O [Example 5, 3-(3-cyano-4-hydroxy-5-trifluoromethylbenzoyl)-2,3-dihydro-1,3-benzothiazole] | 136 | 1.1 | –
N#Cc1cc(C(=O)N2CS(=O)(=O)c3ccccc32)cc(Cl)c1O [Example 7, 3-(3-chloro-5-cyano-4-hydroxybenzoyl)-1,1-dioxo-2,3-dihydro-1,3-benzothiazole] | 178 | 125 | –
CCc1cc(C(=O)N2CS(=O)(=O)c3ccccc32)cc(C#N)c1O [Example 12, 3-(3-cyano-5-ethyl-4-hydroxybenzoyl)-1,1-dioxo-2,3-dihydro-1,3-benzothiazole] | 187 | 15.8 | –
N#Cc1cc(C(=O)N2CS(=O)(=O)c3ccccc32)cc(C2CC2)c1O [Example 13, 3-(3-cyano-5-cyclopropyl-4-hydroxybenzoyl)-1,1-dioxo-2,3-dihydro-1,3-benzothiazole] | 172 | 3.9 | –
C#Cc1cc(C(=O)N2CS(=O)(=O)c3ccccc32)cc(C#N)c1O [Example 14, 3-(3-cyano-5-ethynyl-4-hydroxybenzoyl)-1,1-dioxo-2,3-dihydro-1,3-benzothiazole] | 164 | 119 | –
CSc1cc(C(=O)N2CS(=O)(=O)c3ccccc32)cc(C#N)c1O [Example 15, 3-(3-cyano-4-hydroxy-5-methylsulfanylbenzoyl)-1,1-dioxo-2,3-dihydro-1,3-benzothiazole] | 204 | 68.6 | –
O=C(c1cc(Cl)c(O)c(C(F)(F)F)c1)N1CS(=O)(=O)c2ccccc21 [Example 18, 3-(3-chloro-4-hydroxy-5-trifluoromethylbenzoyl)-1,1-dioxo-2,3-dihydro-1,3-benzothiazole] | 202 | 1 | –
O=C(c1cc(F)c(O)c(Cl)c1)N1CS(=O)(=O)c2ccccc21 [Example 19, 3-(3-chloro-5-fluoro-4-hydroxybenzoyl)-1,1-dioxo-2,3-dihydro-1,3-benzothiazole] | 129 | 55.2 | –
CSc1cc(C(=O)N2CS(=O)(=O)c3ccccc32)cc(Cl)c1O [Example 21, 3-(3-chloro-4-hydroxy-5-methylsulfanylbenzoyl)-1,1-dioxo-2,3-dihydro-1,3-benzothiazole] | 120 | 1.9 | –
CN(C)C(=O)c1cc(C(=O)N2CS(=O)(=O)c3ccccc32)cc(C(F)(F)F)c1O [Example 27, 3-(3-dimethylcarbamoyl-4-hydroxy-5-trifluoromethylbenzoyl)-1,1-dioxo-2,3-dihydro-1,3-benzothiazole] | 146 | 30.6 | –
CCSc1cc(C(=O)N2CS(=O)(=O)c3ccccc32)cc(C#N)c1O [Example 34, 3-(3-cyano-5-ethylsulfanyl-4-hydroxybenzoyl)-1,1-dioxo-2,3-dihydro-1,3-benzothiazole] | 208 | 23.5 | –
CC(C)Sc1cc(C(=O)N2CS(=O)(=O)c3ccccc32)cc(C#N)c1O [Example 35, 3-(3-cyano-4-hydroxy-5-isopropylsulfanylbenzoyl)-1,1-dioxo-2,3-dihydro-1,3-benzothiazole] | 140 | 1.5 | –
N#Cc1cc(C(=O)N2CS(=O)(=O)c3ccc(C(F)(F)F)cc32)cc(C(F)(F)F)c1O [Example 38, 3-(3-cyano-4-hydroxy-5-trifluoromethylbenzoyl)-1,1-dioxo-5-trifluoromethyl-2,3-dihydro-1,3-benzothiazole] | 180 | 16.4 | –
CCCN(CCC)S(=O)(=O)c1ccc(C(=O)O)cc1 [Probenecid, reference compound] | 111 | 0 | 171
